Data reported in patent US8592486B2, “Compounds for inflammation and immune-related uses” (Synta Pharmaceuticals Corp., priority 2005, dated 2013).

Key:
[1] = tested on: degranulation in RBL cells; assay: Inhibition of degranulation in RBL cells; format: cell-based; settings: Rattus norvegicus, anti-DNP IgE, read-out: IC50 (concentration which inhibits 50% of degranulation in RBL cells)
Protocol: The day before the assay was performed, RBL cells, that had been grown to confluence in a 96 well plate, were incubated at 37° C. for at least 2 hours. The medium was replaced in each well with 100 μL of fresh medium containing […] of anti-DNP IgE.
On the following day, the cells were washed once with PRS (2.6 mM glucose and 0.1% BSA) and 160 μL of PRS was added to each well. A test compound was added to a well in a 20 μL solution at 10× of the desired concentration and incubated for 20 to 40 minutes at 37° C. 20 μL of 10× mouse anti-IgE ([…]) was added. Maximum degranulation occurred between 15 to 40 minutes after addition of anti-IgE.

[2] = tested on: chemotactic response of human T cells to MIP-1α; assay: T cell chemotaxis (cell migration) assay, human T cells; format: cell-based; settings: 100 ng/ml MIP-1α, FIG. 1
Protocol: (§1) Twenty ml aliquots of heparinized whole blood (2 pig, 1 human) were subjected to density gradient centrifugation on Ficoll Hypaque. The buffy coat layers representing peripheral blood mononuclear cells (PBMCs) containing lymphocytes and monocytes were washed once, resuspended in 12 ml of incomplete RPMI 1640 and then placed in gelatin-coated T75 culture flasks for 1 hr at 37° C. The non-adherent cells, representing peripheral blood lymphocytes (PBLs) depleted of monocytes, were resuspended in complete RPMI media and placed in loosely packed activated nylon wool columns that had been equilibrated with warm media. After 1 hr at 37° C., the non-adherent T cell populations were eluted by washing of the columns with additional media. The T cell preparations were centrifuged, resuspended in 5 ml of incomplete RPMI, and counted using a hemocytometer.
(§2) Aliquots of each T cell preparation were labeled with Calcien AM (TefLabs) and suspended at a concentration of 2.4×10^6/ml in HEPES-buffered Hank's Balanced Salt Solution containing 1.83 mM CaCl2 and 0.8 mM MgCl2, pH 7.4 (HHBSS). […] The chemotaxis units were then placed in a CytoFlour 4000 (PerSeptive BioSystems) and the fluorescence of each well measured (excitation and emission wavelengths of 450 and 530 nm, respectively). […]

[3] = tested on: ICRAC in human Jurkat T cells; assay: Whole-cell patch clamp, inhibition of ICRAC current in Jurkat T cells; format: cell-based
Protocol: Patch clamp experiments were performed in the tight-seal whole-cell configuration at 21-25° C. High resolution current recordings were acquired by a computer-based patch clamp amplifier system (EPC-9, HEKA, Lambrecht, Germany). Patch pipettes had resistances between 2-4 MΩ after filling with the standard intracellular solution. Immediately following establishment of the whole-cell configuration, voltage ramps of 50-200 ms duration spanning the voltage range of −100 to +100 mV were delivered at a rate of 0.5 Hz over a period of 300-400 seconds. […] Capacitive currents and series resistance were determined and corrected before each voltage ramp using the automatic capacitance compensation of the EPC-9. The low resolution temporal development of membrane currents was assessed by extracting the current amplitude at −80 mV or +80 mV from individual ramp current records.
In general, a whole cell patch clamp method was used to examine the effects of a compound of the invention on a channel that mediates Icrac. […] Then a compound to be tested was perfused (or puffed) to cells in the external solution and the effect of the compound on Icrac was measured. […]
Patch-clamp experiments were performed in the tight-seal whole-cell configuration at 21-25° C. […] Capacitive currents and series resistance were determined and corrected before each voltage ramp using the automatic capacitance compensation of the EPC-9. […]

[4] = tested on: chemotactic response of porcine T cells to MIP-1α; assay: T cell chemotaxis (cell migration) assay, porcine T cells; format: cell-based, pig; settings: Sus scrofa, 10 ng/ml MIP-1α, 2 hr migration, averages of triplicates, read-out: IC50, inhibition of chemotactic response of porcine T cells
Protocol: as §1, §2

IL-2 production = assay: Inhibition of IL-2 production in PHA-activated Jurkat cells (ELISA); format: cell-based, human; settings: Homo sapiens, Jurkat, 20 h, Jurkat cells, PHA 2.5 μg/mL, 20 hours, IL-2 ELISA; read-out: IC50 (inhibition of IL-2 production)
Protocol: Jurkat cells were placed in a 96 well plate (0.5 million cells per well in 1% FBS medium) then a test compound of this invention was added at different concentrations. After 10 minutes, the cells were activated with PHA (final concentration 2.5 μg/mL) and incubated for 20 hours at 37° C. under CO2. The final volume was 200 μL. Following incubation, the cells were centrifuged and the supernatants collected and stored at −70° C. prior to assaying for IL-2 production. A commercial ELISA kit (IL-2 Eli-pair, Diaclone Research, Besancon, France) was used to detect production of IL-2, from which dose response curves were obtained. The IC50 value was calculated as the concentration at which 50% of maximum IL-2 production after stimulation was inhibited versus a non-stimulation control.

`COC(=O)c1ccc(C)c(-c2ccc(NC(=O)c3c(F)cccc3F)cc2)c1` [Compound 1, 4′-(2,6-Difluoro-benzoylamino)-6-methyl-biphenyl-3-carboxylic acid methyl ester] was tested, and the IC50 [1] was 2520 nM, the “Inhibition of chemotactic response of human T cells” value [2] was “inhibitory” and the “Inhibition of ICRAC in human Jurkat T cells” value [3] was “strong inhibitor”. For the same compound, the IC50 [4] was ~5 nM and the IC50 (IL-2 production) was 2 to 4 nM.
